Measurements: the supplement of paper PMC10307832

Assays:
Test in all cases: relative viability (nuclei count vs DMSO), 5 days (fraction); higher = more cells survive
Quizartinib + Pemetrexed = compound: CC(C)(C)c1cc(NC(=O)Nc2ccc(-c3cn4c(n3)sc3cc(OCCN5CCOCC5)ccc34)cc2)no1 [Quizartinib] + Nc1nc2[nH]cc(CCc3ccc(C(=O)N[C@@H](CCC(=O)O)C(=O)O)cc3)c2c(=O)[nH]1 [Pemetrexed] (partner 0.2 µM)
Summary of the method: (§1)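 Relative viability divides the nuclei count in treated wells by that in vehicle wells. Lung cancer cell lines were seeded in 1536-well plates, dosed by pin tool the next day, and fixed and stained after 5 days in one step with final 0.05% Triton X-100, 1% formaldehyde and 1 ug/ml Hoechst. Dosing was a single drug or a fixed anchor-drug dose plus five library-drug doses (not always all listed) in √10 steps, and values are medians of duplicate plates imaged at 4×.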

Quizartinib + Olaparib = compound: CC(C)(C)c1cc(NC(=O)Nc2ccc(-c3cn4c(n3)sc3cc(OCCN5CCOCC5)ccc34)cc2)no1 [Quizartinib] + O=C(c1cc(Cc2n[nH]c(=O)c3ccccc23)ccc1F)N1CCN(C(=O)C2CC2)CC1 [Olaparib] (partner 8 µM)
Summary of the method: as §1

YM155 + Pictilisib = compound: COCC[n+]1c2c(n(Cc3cnccn3)c1C)C(=O)c1ccccc1C2=O [YM155] + CS(=O)(=O)N1CCN(Cc2cc3nc(-c4cccc5[nH]ncc45)nc(N4CCOCC4)c3s2)CC1 [Pictilisib] (partner 1 µM)
Summary of the method: as §1

YM155 + Vorinostat = compound: COCC[n+]1c2c(n(Cc3cnccn3)c1C)C(=O)c1ccccc1C2=O [YM155] + O=C(CCCCCCC(=O)Nc1ccccc1)NO [Vorinostat] (partner 1 µM)
Summary of the method: as §1

Cell Line | relative viability (Quizartinib + Pemetrexed; first compound 0.001 µM) | relative viability (Quizartinib + Pemetrexed; first compound 0.003162 µM) | relative viability (Quizartinib + Pemetrexed; first compound 0.01 µM) | relative viability (Quizartinib + Pemetrexed; first compound 0.03162 µM) | relative viability (Quizartinib + Pemetrexed; first compound 0.1 µM) | relative viability (Quizartinib + Olaparib; first compound 0.001 µM) | relative viability (Quizartinib + Olaparib; first compound 0.003162 µM) | relative viability (Quizartinib + Olaparib; first compound 0.01 µM) | relative viability (Quizartinib + Olaparib; first compound 0.03162 µM) | relative viability (Quizartinib + Olaparib; first compound 0.1 µM) | relative viability (YM155 + Pictilisib; first compound 0.002 µM) | relative viability (YM155 + Pictilisib; first compound 0.006325 µM) | relative viability (YM155 + Pictilisib; first compound 0.02 µM) | relative viability (YM155 + Pictilisib; first compound 0.06325 µM) | relative viability (YM155 + Vorinostat; first compound 0.006325 µM) | relative viability (YM155 + Vorinostat; first compound 0.02 µM) | relative viability (YM155 + Vorinostat; first compound 0.06325 µM) | relative viability (YM155 + Vorinostat; first compound 0.002 µM)
NCI-H23 | 0.6 | 0.62 | 0.639 | 0.593 | 0.635 | 0.273 | 0.269 | 0.372 | 0.279 | 0.264 | 0.518 | 0.459 | 0.484 | 0.222 | 0.555 | 0.626 | 0.544 | –
LOU-NH91 | 0.394 | 0.397 | 0.386 | 0.377 | 0.436 | 0.87 | 0.885 | 0.931 | 0.838 | 1.01 | 0.495 | 0.519 | 0.578 | 0.535 | 0.921 | 0.949 | 0.932 | 0.883
